What was measured:
hCB-2 [1] = target: T1, hCB-2 (Homo sapiens, UniProt P34972); test: hCB2-Sf9 antagonist mode SPA GTP-γ-35S binding assay; format: biochemical; settings: human CB-2 Sf9 membranes, antagonist mode vs methanandamide; read-out: hCB-2 SPA GTPγS Sf9 Membrane Antagonist Kb
T1 construct: purchased Perkin Elmer, Boston, Mass; host or cells: Sf9 insect cells (membranes)
Method: (§1) Compounds of the present invention may be tested for functional activity at the CB-1 and CB-2 receptors in both agonist and antagonist modes using SPA (Scintillation Proximity Assay) based GTP-γ-^35S binding assays. All assay components are prepared in assay buffer (20 mM HEPES, 100 mM NaCl, 5 mM MgCl2, pH 7.4) at room temperature. Semi-log dilutions of test compound are prepared in assay buffer containing BSA (0.125% final conc.) for the agonist mode assays. For the antagonist mode assays, test compounds are prepared in the same manner but also include an 80% efficacious dose of a full agonist (methanandamide). GTP-γ^35S binding for the antagonist assay may be measured in a 96 well format using a modification of an antibody capture technique previously described. (DeLapp, N W, et al. (1999) J Pharmacol Exp Ther 289:946-955.) The CB-2 receptor agonist activity may be measured using a similar method using hCB2-Sf9 membranes. The CB-1 receptor agonist activity may be measured using a whole membrane capture technique using hCB1-CHO membranes. All incubations are done at room temperature.
hCB1-Sf9 and hCB2-Sf9 antagonist Assays:
hCB1-5f9 and hCB2-5f9 membranes (Perkin Elmer, Boston, Mass.) are prepared essentially as above with 1 μM (final conc.) GDP for hCB1-5f9 and 0.05 μM (final conc.) GDP for hCB2-5f9. The assay is run essentially as described for the CHO membranes above. Diluted membranes are pre-incubated with test compound for 15 min., which is followed by addition of GTP-γ-^35S and a further 35 min. incubation. Nonidet P40 and anti-Gi-antibody are added sequentially with a 15 min. incubation after each addition. The SPA beads are then added, the plates are sealed and vortexed, and then incubated at room temperature for 1 hr.
Data are analyzed as follows: Background is subtracted from all wells. Percent agonist efficacy is determine by normalizing agonist/inverse agonist dose response data to the response obtained for a full agonist (methanandamide). Percent antagonist inhibition is calculated by first normalizing the data to the signal generated by a saturating concentration of the full agonist (methanandamide). Then the data are analyzed using a 4-parameter logistic reduced fit (Activity Base™ and XLFit3™ from IDBS, Emeryville, Calif.). Kb values are determined using a modification of the Cheng-Prusoff relationship: Kb=IC50/(1+[agonist]/EC50), where “IC50” is determined from a four parameter fit of displacement curves, “[agonist]” is the agonist challenge concentration (nM), and “EC50” is determined from a four parameter fit of a full agonist concentration response curve (Cheng and Prusoff 1973). Mean Kb values are calculated as a mean of at least three independent determinations±standard error of the mean (SEM). […]

rCB-1 = target: T2, rCB-1 (Rattus norvegicus, UniProt P20272); test: rCB1-CHO antagonist mode SPA GTP-γ-35S binding assay; format: biochemical; settings: rat CB-1 CHO membranes, antagonist mode vs methanandamide; read-out: rCB-1 SPA GTPγS CHO Membrane Antagonist Kb
T2 construct: purchased Applied Cell Sciences, Rockville, Md; host or cells: CHO cells (membranes)
T2 sequence (P20272 whole entry): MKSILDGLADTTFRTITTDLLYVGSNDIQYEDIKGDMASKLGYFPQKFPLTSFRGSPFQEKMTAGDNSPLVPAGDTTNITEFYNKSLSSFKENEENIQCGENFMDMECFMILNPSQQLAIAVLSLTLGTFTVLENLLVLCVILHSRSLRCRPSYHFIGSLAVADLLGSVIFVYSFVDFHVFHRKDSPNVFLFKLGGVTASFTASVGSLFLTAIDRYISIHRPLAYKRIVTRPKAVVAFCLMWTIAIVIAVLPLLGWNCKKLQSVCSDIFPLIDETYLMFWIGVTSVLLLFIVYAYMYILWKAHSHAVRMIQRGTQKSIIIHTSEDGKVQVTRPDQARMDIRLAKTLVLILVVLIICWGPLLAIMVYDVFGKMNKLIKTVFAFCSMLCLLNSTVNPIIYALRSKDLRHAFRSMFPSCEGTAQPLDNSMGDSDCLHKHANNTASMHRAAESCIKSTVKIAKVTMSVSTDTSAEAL
Method: as §1
(§2) hCB1-CHO and rCB1-CHO Antagonist Assays:
hCB1-CHO or rCB1-CHO membranes (Applied Cell Sciences, Rockville, Md.) and GDP (1 μM final) are added to ice cold assay buffer and homogenized. […] Plates are then centrifuged at 700×g for 10 min. and the radioactivity counted.
Data are analyzed as follows: Background is subtracted from all wells. […] Percent antagonist inhibition is calculated by first normalizing the data to the signal generated by a saturating concentration of the full agonist (methanandamide). Then the data are analyzed using a 4-parameter logistic reduced fit (Activity Base™ and XLFit3™ from IDBS, Emeryville, Calif.). Kb values are determined using a modification of the Cheng-Prusoff relationship: Kb=IC50/(1+[agonist]/EC50), where “IC50” is determined from a four parameter fit of displacement curves, “[agonist]” is the agonist challenge concentration (nM), and “EC50” is determined from a four parameter fit of a full agonist concentration response curve (Cheng and Prusoff 1973). […]

hCB-1 [2] = target: T3, hCB-1 (Homo sapiens, UniProt P21554); test: hCB1-CHO agonist mode SPA GTP-γ-35S binding assay; format: biochemical; settings: for hCB-1 SPA GTPγS CHO Membrane Agonist % Relative Efficacy: normalized to full agonist methanandamide, below zero = inverse agonist
T3 construct: purchased Applied Cell Sciences, Rockville, Md; host or cells: CHO cells (membranes)
T3 sequence (P21554 whole entry): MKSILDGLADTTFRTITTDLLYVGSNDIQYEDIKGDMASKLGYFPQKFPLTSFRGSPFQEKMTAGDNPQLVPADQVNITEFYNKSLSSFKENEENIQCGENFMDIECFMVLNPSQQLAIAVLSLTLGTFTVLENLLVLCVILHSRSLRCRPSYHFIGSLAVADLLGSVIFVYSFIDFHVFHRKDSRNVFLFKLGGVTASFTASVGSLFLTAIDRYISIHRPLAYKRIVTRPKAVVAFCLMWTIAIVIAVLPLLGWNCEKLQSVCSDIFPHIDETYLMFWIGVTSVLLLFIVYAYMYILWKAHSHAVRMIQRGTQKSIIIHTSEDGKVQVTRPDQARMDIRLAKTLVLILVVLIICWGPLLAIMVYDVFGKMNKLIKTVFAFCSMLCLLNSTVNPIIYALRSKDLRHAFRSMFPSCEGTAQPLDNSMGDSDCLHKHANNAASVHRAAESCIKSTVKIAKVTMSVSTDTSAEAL
Method: as §1
hCB1-CHO membrane, GDP (1 μM final conc.), and saponin (10 ng/mL final conc., Sigma, St Louis, Mo.) are combined and prepared on ice as for the antagonist assays, above. Diluted test compounds, GTP-γ-^35S (500 nM final conc.) and membranes are combined in the assay plate and incubated for 30 min. Then 1 mg/well Wheatgerm Agglutinin SPA beads (GE Healthcare, Piscataway, N.J.) are added, plates are sealed and vortexed and incubate for 1 hr. before spinning and counting in the same fashion as for the antagonist assays, above.
(§3) Data are analyzed as follows: Background is subtracted from all wells. Percent agonist efficacy is determine by normalizing agonist/inverse agonist dose response data to the response obtained for a full agonist (methanandamide). Percent antagonist inhibition is calculated by first normalizing the data to the signal generated by a saturating concentration of the full agonist (methanandamide). Then the data are analyzed using a 4-parameter logistic reduced fit (Activity Base™ and XLFit3™ from IDBS, Emeryville, Calif.). Kb values are determined using a modification of the Cheng-Prusoff relationship: Kb=IC50/(1+[agonist]/EC50), where “IC50” is determined from a four parameter fit of displacement curves, “[agonist]” is the agonist challenge concentration (nM), and “EC50” is determined from a four parameter fit of a full agonist concentration response curve (Cheng and Prusoff 1973). Mean Kb values are calculated as a mean of at least three independent determinations±standard error of the mean (SEM). (Cheng Y C and Prusoff W H. (1973), Biochem Pharmacol 22:3099-3108.) Exemplified compounds are found to be potent CB-1 inverse agonists (Kb≦10 nM, typically <2 nM) and to be selective over the CB-2 receptor (Kb CB-2/Kb CB-1>500, typically >1000).

hCB-1 [3] = target: T3, hCB-1; test: hCB1-CHO antagonist mode SPA GTP-γ-35S binding assay; format: biochemical; settings: human CB-1 CHO membranes, antagonist mode vs methanandamide; read-out: hCB-1 SPA GTPγS CHO Membrane Antagonist Kb
Method: as §1, §2
hCB1-CHO or rCB1-CHO membranes (Applied Cell Sciences, Rockville, Md.) and GDP (1 μM final) are added to ice cold assay buffer and homogenized. Diluted compounds, GTP-γ-^35S (500 nM final conc.) and membranes are added to wells of an assay plate and incubated for 30 min. at room temperature. Next, a mixture containing Nonidet P40 detergent (0.2% final conc.), rabbit polyclonal IgG Gαi-3 antibody (provided by Covance, Princeton, N.J.), and 1.25 mg anti-rabbit antibody scintillation proximity assay beads (GE Healthcare, Piscataway, N.J.) is added. The plates are sealed, vortexed, and incubated for an additional 2 hr. Plates are then centrifuged at 700×g for 10 min. and the radioactivity counted.
Data are analyzed as follows: Background is subtracted from all wells. […] Percent antagonist inhibition is calculated by first normalizing the data to the signal generated by a saturating concentration of the full agonist (methanandamide). Then the data are analyzed using a 4-parameter logistic reduced fit (Activity Base™ and XLFit3™ from IDBS, Emeryville, Calif.). Kb values are determined using a modification of the Cheng-Prusoff relationship: Kb=IC50/(1+[agonist]/EC50), where “IC50” is determined from a four parameter fit of displacement curves, “[agonist]” is the agonist challenge concentration (nM), and “EC50” is determined from a four parameter fit of a full agonist concentration response curve (Cheng and Prusoff 1973). Mean Kb values are calculated as a mean of at least three independent determinations±standard error of the mean (SEM). […]

hCB-2 [4] = target: T1, hCB-2; test: hCB2-Sf9 agonist mode SPA GTP-γ-35S binding assay; format: biochemical; settings: human CB-2 Sf9 membranes, read-out: hCB-2 SPA GTPγS Sf9 Membrane Agonist Relative EC50
Method: as §1
The hCB2-5f9 assay is run essentially as for the hCB1-sf9 and hCB2-sf9 antagonist assays above, with no challenging agonist added. 1 μM (final conc.) GDP is added to the membrane solution and nonidet P40, anti-Gi-antibody, and SPA bead are added together in a cocktail.
as §3

CYP2C9 = target: T4, CYP2C9 (Homo sapiens, UniProt P11712); test: Human CYP fingerprinting, sulfaphenazole inhibitor; format: in vitro ADME; settings: 4 μM, human liver microsomes, 30 min, sulfaphenazole 5 μM
T4 construct: pooled, mixed gender, human liver microsomes; from tissue; host or cells: pooled, mixed gender human liver microsomes
T4 sequence (P11712 whole entry): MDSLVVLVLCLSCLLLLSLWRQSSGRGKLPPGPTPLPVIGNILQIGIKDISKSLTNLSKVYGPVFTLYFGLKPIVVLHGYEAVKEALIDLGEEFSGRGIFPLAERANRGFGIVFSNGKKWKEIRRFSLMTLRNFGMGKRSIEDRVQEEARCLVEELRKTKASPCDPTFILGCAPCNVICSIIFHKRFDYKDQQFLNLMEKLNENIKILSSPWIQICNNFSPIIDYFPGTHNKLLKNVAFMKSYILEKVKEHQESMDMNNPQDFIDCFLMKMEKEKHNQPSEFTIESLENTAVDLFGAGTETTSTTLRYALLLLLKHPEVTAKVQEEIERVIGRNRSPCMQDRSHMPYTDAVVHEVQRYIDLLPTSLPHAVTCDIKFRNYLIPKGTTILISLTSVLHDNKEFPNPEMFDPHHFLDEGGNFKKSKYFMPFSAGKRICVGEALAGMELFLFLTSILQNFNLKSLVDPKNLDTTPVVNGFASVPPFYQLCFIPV
Method: (§4) CYP fingerprinting is well established technique and is used as an indication of potential risk of drug-drug interactions in the pharmaceutical sciences. Compounds of the present invention may be assayed by well known methods, essentially as follows: Compounds are incubated at 37° C. at a final concentration of 4 μM with pooled, mixed gender, human liver microsomes and 1 mM NADPH ([…]) (final conc.) for 0 and 30 min. without any CYP inhibitor and with each CYP inhibitor in separate incubations for 30 min. Each inhibitor is specific for an individual cytochrome P450. The specific inhibitors used for CYPs 2C9, 2D6 and 3A were sulfaphenazole, quinidine and ketoconazole, respectively. Ketoconazole (CYP3A) is made up at 25 mM in DMSO and then diluted in buffer to a final concetration of 10 μM. Quinidine (CYP2D6) is made up at 5 mM in 50/50 acetonitrile/water and then diluted in buffer to a final concetration of 10 μM. Sulfaphenazole (CYP2C9) is made up at 100 mM in DMSO and then diluted in buffer to a final concetration of 5 μM. Samples are analyzed by LC-MS in positive or negative electrospray mode using a Waters Acquity Ultra Performance LC coupled to a MicroMass Q-T of-2 mass spectrometer.
(§5) Data are analyzed using MetaboLynx™ version 4.1. With inhibitor present, a reduction in metabolite peak area of less than 30% (relative to the uninhibited control incubation) receives a designation of low risk of Drug Drug Interaction (DDI), a reduction in peak area between 30% and 70% receives a moderate risk of DDI and a reduction of more than 70% receives a high risk of DDI.

CYP3A = test: Human CYP fingerprinting, ketoconazole inhibitor; format: in vitro ADME; settings: 4 μM, human liver microsomes, 30 min, ketoconazole 10 μM
Method: as §4, §5

CYP2D6 = target: T5, CYP2D6 (Homo sapiens, UniProt P10635); test: Human CYP fingerprinting, quinidine inhibitor; format: in vitro ADME; settings: 4 μM, human liver microsomes, 30 min, quinidine 10 μM
T5 construct: pooled, mixed gender, human liver microsomes; from tissue; host or cells: pooled, mixed gender human liver microsomes
T5 sequence (P10635 whole entry): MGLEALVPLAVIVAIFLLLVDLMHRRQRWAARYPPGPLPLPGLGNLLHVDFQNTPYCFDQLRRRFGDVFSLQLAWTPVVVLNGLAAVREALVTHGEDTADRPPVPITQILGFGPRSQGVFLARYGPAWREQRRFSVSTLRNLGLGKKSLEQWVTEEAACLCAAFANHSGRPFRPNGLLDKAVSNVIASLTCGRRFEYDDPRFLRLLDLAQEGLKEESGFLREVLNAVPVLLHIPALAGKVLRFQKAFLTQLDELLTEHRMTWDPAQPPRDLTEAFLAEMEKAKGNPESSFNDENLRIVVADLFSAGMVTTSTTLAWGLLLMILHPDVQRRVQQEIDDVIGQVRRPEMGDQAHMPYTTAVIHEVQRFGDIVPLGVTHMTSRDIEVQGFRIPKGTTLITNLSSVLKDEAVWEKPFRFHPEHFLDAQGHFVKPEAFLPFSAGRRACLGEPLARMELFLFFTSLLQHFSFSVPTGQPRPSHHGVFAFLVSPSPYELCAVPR
Method: as §4, §5

T1 sequence (P34972 whole entry): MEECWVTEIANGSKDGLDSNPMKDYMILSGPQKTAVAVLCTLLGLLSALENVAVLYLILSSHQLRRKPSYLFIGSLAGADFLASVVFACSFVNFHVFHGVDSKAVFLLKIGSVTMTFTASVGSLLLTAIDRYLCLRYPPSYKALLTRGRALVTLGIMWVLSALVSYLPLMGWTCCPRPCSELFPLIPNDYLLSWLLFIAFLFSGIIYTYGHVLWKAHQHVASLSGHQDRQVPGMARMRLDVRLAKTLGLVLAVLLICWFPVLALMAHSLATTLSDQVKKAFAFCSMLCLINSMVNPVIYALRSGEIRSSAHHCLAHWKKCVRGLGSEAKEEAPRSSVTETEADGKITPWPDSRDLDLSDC

Row | EC50 (hCB-1 [2]; human CB-1 CHO membranes, agonist mode (inverse agonism), read-out: hCB-1 SPA GTPγS CHO Membrane Agonist Relative EC50 inverse) | SMILES | Kb (hCB-2 [1]) | Kb (rCB-1) | hCB-1 SPA GTPγS CHO Membrane Agonist % Relative Efficacy (hCB-1 [2]) | Kb (hCB-1 [3]) | EC50 (hCB-2 [4]) | Risk of Drug Drug Interaction (DDI) CYP2C9 (CYP2C9) | Risk of Drug Drug Interaction (DDI) CYP3A (CYP3A) | Risk of Drug Drug Interaction (DDI) CYP2D6 (CYP2D6)
1 |  | CC(C)(N[C@@H]1C[C@H](c2cccc(OC(F)(F)F)c2)N(c2ccc(C(F)(F)F)cc2)C1=O)c1ccnc(C(F)(F)F)n1 [Example 1, (3R,5R)-3-[1-Methyl-1-(2-trifluoromethyl-pyrimidin-4-yl)-ethylamino]-5-(3-trifluoromethoxy-phenyl)-1-(4-trifluoromethyl-phenyl)-pyrrolidin-2-one] | > 8710 nM | 0.177 nM | −99.3% | 0.895 nM | > 8710 nM | low (a reduction in metabolite peak area of less than 30% (relative to the uninhibited control incubation) receives a designation of low risk of Drug Drug Interaction (DDI)) |  | 
2 | 2.39 nM | CC(C)(N[C@@H]1C[C@H](c2cccc(OC(F)(F)F)c2)N(c2ccc(C(F)(F)F)cc2)C1=O)c1ccnc(C2CC2)n1 [Example 2, (3R,5R)-3-[1-(2-Cyclopropyl-pyrimidin-4-yl)-1-methyl-ethylamino]-5-(3-trifluoromethoxy-phenyl)-1-(4-trifluoromethyl-phenyl)-pyrrolidin-2-one] | > 10800 nM |  | −108% | 0.644 nM | > 10800 nM | low (a reduction in metabolite peak area of less than 30% (relative to the uninhibited control incubation) receives a designation of low risk of Drug Drug Interaction (DDI)) | low (a reduction in metabolite peak area of less than 30% (relative to the uninhibited control incubation) receives a designation of low risk of Drug Drug Interaction (DDI)) | low (a reduction in metabolite peak area of less than 30% (relative to the uninhibited control incubation) receives a designation of low risk of Drug Drug Interaction (DDI))

From patent US8420654B2 (Eli Lilly and Company, priority 2008, dated 2013)
